{"source": "paper PMC5612656", "about": "“In vitro and in vivo effects of 2,4 diaminoquinazoline inhibitors of the decapping scavenger enzyme DcpS: Context-specific modulation of SMN transcript levels” (PLoS ONE, 2017)", "key": {"[1]": {"tested_on": "firefly luciferase driven by the SMN2 promoter and SMN2 splicing cassette", "assay": "SMN2 reporter gene assay, firefly luciferase", "assay_type": "cell-based", "conditions": "24 hrs", "protocol": "(§1) The SMN2 reporter cell line was cultured in high-glucose DMEM supplemented with 10% (v/v) fetal bovine serum (FBS) and 1X Penicillin/Streptomycin. Reporter cells media was supplemented with hygromycin during maintenance. All cells were maintained at 37°C and […]. After seeding in 96-well white tissue culture plates at 25,000 per well, cells were incubated overnight before being exposed to different doses of compounds or DMSO for 24 hrs. The final DMSO concentration was kept constant at 0.1% (v/v). Firefly and renilla luciferase expression were assayed with DualGlo (Promega E2920) and measured on a PHERAstar FS microplate reader (BMG Labtech). Relative light units are normalized to DMSO control and expressed as a percentage."}, "[2]": {"tested_on": "Renilla luciferase driven by the CMV promoter", "assay": "Reporter gene assay, CMV-driven Renilla luciferase", "assay_type": "cell-based", "conditions": "24 hrs", "protocol": "as §1"}, "N2a cells": {"tested_on": "N2a cells", "assay": "RNA-Seq (polyA RNA) of N2a neuroblastoma cells", "assay_type": "cell-based, mouse", "conditions": "1 μM", "protocol": "Cells were then pelleted and lysed in RLT and the RNA was purified according to the protocol for the Qiagen miRNeasy kit to separate and enrich small RNA and large (>200 nt) fractions separately. […] RNA quality was also validated using qPCR for DcpS responsive genes. RNA fractions were used for cDNA library preparation which was performed using Truseq mRNA v2 reagents or TailorMix miRNA reagents (RS-122-2101 Illumina, San Diego CA, USA and TM302 Seqmatic, Fremont CA, USA). Libraries were run on a Nextseq 500 (Illumina) using a paired-end run (2x75bp) generating ~60 million reads per library for the mRNA-seq and 1x75bp generating ~5 million reads per library for the miRNA-seq. Demultiplexing, alignment, and differential analysis for the mRNA-seq were performed as described below. For the miRNA alignment, briefly the sequences between 16 and 35 nucleotides with average phred score ≥ 30 were retained for analysis. The reads were first mapped to mouse miRNAs using Bowtie without allowing for mismatches. Instead of discarding the remaining reads, we explored the possibilities of RNA editing to include potential isomiRs. These reads were mapped to miRNAs that have at most 1 base mismatch, a substitution at the 5’ or 3’ ends, or have 1 or 2 extra bases at either ends. Although 1 base mismatch would include 1 base substitution/deletion/addition at the ends, we made sure that 1 base mismatch was inside the miRNA and that all categories were mutually exclusive. Reads mapping to protein coding exons and other small RNAs were removed prior to mapping to miRNAs. Reads that uniquely mapped to miRNAs were considered and were profiled as: 1) identical to miRNAs, 2) perfect match to miRNAs but are of shorter length (no more than 5 bases short), 3) mapping to miRNAs with 1 substitution, 1 or 2 extra bases at 3’ and 5’ ends and with those with at most 1 mismatch (occurring inside the sequence and not on ends), 4) mapping to the precursor miRNA. Thus, steps 2–4 constitute “IsomiRs”-alternative forms of the mature miRNAs. We merged the counts of reads identical to a miR and those mapping to isomeric forms as they are found to have identical/very similar functions. The unaligned reads were mapped to the mouse genome and an internally developed database of rRNAs from bacteria, fungi, plant and eukaryotes to detect presence of contaminants. For differential analysis of miRNAs, only those with counts of ≥5 in at least 1/3rd samples (treatment vs control) were considered for analysis. The counts were normalized and analyzed using EdgeR [19] packages in R-Bioconductor. The P-values were corrected by FDR for multiple testing and miRNAs with FDR ≤15% and |FC|>1.5 were considered to be differentially expressed.\nThe differentially regulated gene lists for both the spinal cord mRNA-seq and the N2a mRNA-seq results with a corrected P-value less than 0.05 were loaded into IPA and analyzed against the Ingenuity Knowledgebase, Ingenuity Expert Information, and with experimentally observed confidence."}, "SMN protein [3]": {"tested_on": "SMN protein", "assay": "SMN protein by Western blot in SMA cells (fibroblasts, lymphoblasts, iPS-derived neural progenitor cells)", "assay_type": "cell-based, human", "conditions": "24 hours to 7 days", "protocol": "Lysates were incubated at 95°C for 5 minutes and cleared at 14,000 RPM for 15 minutes. Cleared lysates were quantified by BCA assay. A total of 5 μg of each lysate was mixed with NuPage LDS sample buffer with […] and loaded and separated on a NuPage 10% Bis-Tris gel. Proteins were transferred to 0.2 micron nitrocellulose using the BioRad Turbo Transfer system."}, "recombinant human DcpS": {"biological_target": "T1, recombinant human DcpS (Homo sapiens, UniProt Q96C86)", "T1 sequence (Q96C86 1-337)": "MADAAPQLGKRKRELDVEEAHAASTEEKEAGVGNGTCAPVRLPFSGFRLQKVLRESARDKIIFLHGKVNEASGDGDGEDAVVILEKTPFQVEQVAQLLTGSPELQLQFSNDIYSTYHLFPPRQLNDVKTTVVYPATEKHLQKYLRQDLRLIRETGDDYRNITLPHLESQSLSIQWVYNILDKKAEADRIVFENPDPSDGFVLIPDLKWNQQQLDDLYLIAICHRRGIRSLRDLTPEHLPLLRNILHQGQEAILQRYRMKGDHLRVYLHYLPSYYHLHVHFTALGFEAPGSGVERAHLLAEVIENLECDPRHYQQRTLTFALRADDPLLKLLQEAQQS", "assay": "in vitro DcpS inhibition assay (m7GpppA-biotin substrate, ADP-biotin detection)", "assay_type": "biochemical", "conditions": "mean of two or more independent assays", "method": "Incubations were initiated by the addition of 50 nM m7GpppA-biotin substrate and proceeded for 45 min at room temperature before being terminated by the addition of 1 μM D156844 [11]. Production of ADP-biotin was quantitated by transferring 18 μl of the quenched reaction (or biotin-ADP standard) to a streptavidin-coated plate (Pierce), incubating for 2 hours then washing 3 times followed by detection using an anti-ADP mouse antibody (Bellbrook lab) and an HRP-conjugated Goat anti-mouse IgG (Invitrogen)."}, "[4]": {"assay": "Single dose PK in adult FVB/N wild type mice", "from_the_text": "Personnel conducting studies followed the approved standard operating procedures for daily monitoring, dosing, weaning and euthanasia according to the approved study protocol. […] Line maintenance was maintained by interbreeding of the congenic line and every 4th generation mice were outbred to wild type FBV/N mice (jax # 001800) to reduce the possibility of new mutations within the line. Smn 2B mice were internally developed and maintained in the DiDonato laboratory. To generate the SMA mice used in this study an intercross between Smn 2B/2B and Smn +/- mice was performed. This generated litters in which 50% of the offspring were control (2B/+) and 50% SMA (2B/-). The day of birth was considered to be P0. If pups were born after 3pm, the following day was considered P0. At P1, pups were counted. If greater than 10 pups to a cage, pups were randomly chosen and moved to another cage to increase litter size, culled to reduce litter size or genotyped at P1 and culled at P2 to reduce litter size to 10 or fewer pups. Thereafter, no culling of pups was performed for drug studies. Individual mice were genotyped from DNA obtained from tail snips by polymerase chain reaction (PCR). All mice were weaned at P21 and separated into male and female cages. […] For the PK single dose studies a single ip injection was used. For survival studies drug level and tissue harvest mice from P4-P16 treatment, mice were treated twice daily (b.i.d.) via intraperitoneal (i.p.) injection starting on P4 and continuing until P20 or the sacrifice of the animals, whichever occurred sooner. The dosing interval was 12 hours ± 90 minutes. Body weights were recorded daily in the AM and dosing volume was adjusted accordingly. […] At P4, litters were randomized across treatment arms to uniformly control litter size and litter weight as appropriate. Litter size entry was a minimum of 6 and maximum of 10. Litters with average weights at P4 that were greater or less than two stand deviations below the average P4 litter weight of untreated litters were also excluded from study entry. All mice within a litter were dosed with only one test article or received no dose at all. Dosers/phenotypic testers were blinded to the test articles being administered. […] Mice meeting humane functional endpoints (30 percent loss of weight for two consecutive days and/or an inability to right within 1 minute or obvious state of distress) were immediately euthanized with CO2 followed by cervical dislocation as a secondary measure. […] Those not used for analyses were also euthanized using CO2 inhalation followed by cervical dislocation as a secondary measure."}, "[5]": {"tested_on": "Smn transcripts in spinal cord, skeletal muscle, liver", "assay": "Smn transcripts in mouse tissues by ddPCR", "assay_type": "in vivo", "description": "(§2) At P1, pups were counted."}, "[6]": {"tested_on": "SMN transcripts in SMA-derived lymphoblasts", "assay": "SMN transcripts by ddPCR in SMA-derived lymphoblasts", "assay_type": "cell-based, human", "conditions": "active DAQ-DcpSi vs 7-methyl analogues"}, "2B/- SMA mice [7]": {"tested_on": "2B/- SMA mice", "assay": "Survival and body weight study in 2B/- SMA mice", "assay_type": "in vivo, mouse", "conditions": "b.i.d. i.p. P4-P20, RG3039 6 mg/kg, PF-06738066 10 mg/kg, P < 0.0001 Mantel-Cox or Gehan-Breslow-Wilcoxon"}, "[8]": {"assay": "Single dose PK in P13 2B/- SMA and 2B/+ littermate pups", "from_the_text": "Personnel conducting studies followed the approved standard operating procedures for daily monitoring, dosing, weaning and euthanasia according to the approved study protocol. […] Line maintenance was maintained by interbreeding of the congenic line and every 4th generation mice were outbred to wild type FBV/N mice (jax # 001800) to reduce the possibility of new mutations within the line. Smn 2B mice were internally developed and maintained in the DiDonato laboratory. To generate the SMA mice used in this study an intercross between Smn 2B/2B and Smn +/- mice was performed. This generated litters in which 50% of the offspring were control (2B/+) and 50% SMA (2B/-). The day of birth was considered to be P0. If pups were born after 3pm, the following day was considered P0. At P1, pups were counted. If greater than 10 pups to a cage, pups were randomly chosen and moved to another cage to increase litter size, culled to reduce litter size or genotyped at P1 and culled at P2 to reduce litter size to 10 or fewer pups. Thereafter, no culling of pups was performed for drug studies. Individual mice were genotyped from DNA obtained from tail snips by polymerase chain reaction (PCR). All mice were weaned at P21 and separated into male and female cages. […] For the PK single dose studies a single ip injection was used. For survival studies drug level and tissue harvest mice from P4-P16 treatment, mice were treated twice daily (b.i.d.) via intraperitoneal (i.p.) injection starting on P4 and continuing until P20 or the sacrifice of the animals, whichever occurred sooner. The dosing interval was 12 hours ± 90 minutes. Body weights were recorded daily in the AM and dosing volume was adjusted accordingly. […] At P4, litters were randomized across treatment arms to uniformly control litter size and litter weight as appropriate. Litter size entry was a minimum of 6 and maximum of 10. Litters with average weights at P4 that were greater or less than two stand deviations below the average P4 litter weight of untreated litters were also excluded from study entry. […]"}, "[9]": {"assay": "Plasma drug levels after P4-P16 dosing", "conditions": "FVB/N background, mouse, ip", "from_the_text": "Personnel conducting studies followed the approved standard operating procedures for daily monitoring, dosing, weaning and euthanasia according to the approved study protocol. […] Line maintenance was maintained by interbreeding of the congenic line and every 4th generation mice were outbred to wild type FBV/N mice (jax # 001800) to reduce the possibility of new mutations within the line. Smn 2B mice were internally developed and maintained in the DiDonato laboratory. To generate the SMA mice used in this study an intercross between Smn 2B/2B and Smn +/- mice was performed. This generated litters in which 50% of the offspring were control (2B/+) and 50% SMA (2B/-). The day of birth was considered to be P0. If pups were born after 3pm, the following day was considered P0. At P1, pups were counted. If greater than 10 pups to a cage, pups were randomly chosen and moved to another cage to increase litter size, culled to reduce litter size or genotyped at P1 and culled at P2 to reduce litter size to 10 or fewer pups. Thereafter, no culling of pups was performed for drug studies. Individual mice were genotyped from DNA obtained from tail snips by polymerase chain reaction (PCR). All mice were weaned at P21 and separated into male and female cages. […] For the PK single dose studies a single ip injection was used. […] Body weights were recorded daily in the AM and dosing volume was adjusted accordingly. […]"}, "2B/- SMA mice [10]": {"tested_on": "2B/- SMA mice", "assay": "Combined 55° negative geotaxis/climb test in 2B/- SMA mice", "assay_type": "in vivo, mouse"}, "Smn protein [11]": {"tested_on": "Smn protein", "assay": "Smn protein in mouse tissues by Western blot", "assay_type": "in vivo", "conditions": "2B/- SMA mice", "description": "as §2"}, "SMA Δ7 mice": {"tested_on": "SMA Δ7 mice", "conditions": "SMAΔ7 mice; cited from earlier work"}, "Smn mRNA in NSC-34 cells": {"tested_on": "Smn mRNA in NSC-34 cells", "parameters": "method as in PMID 18205293", "conditions": "cited from earlier work"}, "[12]": {"tested_on": "SMN protein in SMA patient fibroblasts", "parameters": "method as in PMID 18205293", "conditions": "cited from earlier work"}, "[13]": {"conditions": "cited from earlier work"}, "[14]": {"conditions": "adult FVB/N mice, 30 mg/kg i.p."}, "[15]": {"conditions": "P16, Fisher's exact test P-value = 0.0708"}}, "data": [{"compound": "Cc1cc(OCC2CCN(Cc3c(Cl)cccc3Cl)CC2)c2c(N)nc(N)nc2c1", "note": "[PF-06802336]", "values": [{"measurement": "effect on SMN2-driven firefly luciferase activity", "setting": "[1]", "value": "no effect"}, {"measurement": "effect on CMV-driven Renilla luciferase activity", "setting": "[2]", "value": "no effect"}, {"measurement": "genes down-regulated by compound (P < 0.05)", "setting": "N2a cells; 24 hours", "value": 3, "unit": "genes"}, {"measurement": "genes upregulated by compound (P < 0.05)", "setting": "N2a cells; 24 hours", "value": 4, "unit": "genes"}, {"measurement": "genes differentially expressed compared to DMSO (P < 0.05)", "setting": "N2a cells; 24 hours, 18,409 detectable genes", "value": 7, "unit": "genes"}]}, {"compound": "CC(C)c1cc(C(=O)Nc2ccc(F)c(Cl)c2)no1", "note": "[LDN-75654]", "values": [{"measurement": "effect on SMN2-driven firefly luciferase activity", "setting": "[1]", "value": "strong positive effect"}, {"measurement": "effect on CMV-driven Renilla luciferase activity", "setting": "[2]", "value": "much weaker"}]}, {"compound": "CCN1CCN(c2ccc3cc(-c4cn5cc(C)nc(C)c5n4)c(=O)oc3c2)C[C@@H]1C", "note": "[SMN-C2]", "values": [{"measurement": "effect on SMN2-driven firefly luciferase activity", "setting": "[1]", "value": "strong positive effect"}, {"measurement": "SMN protein", "setting": "SMN protein [3]", "value": "positive SMN response"}, {"measurement": "effect on CMV-driven Renilla luciferase activity", "setting": "[2]", "value": "no effect"}]}, {"compound": "Cc1cc(COc2cc(F)cc(C#N)c2)c2c(N)nc(N)nc2c1", "note": "[PF-06832344]", "values": [{"measurement": "IC50", "setting": "recombinant human DcpS", "value": "> 10", "unit": "µM"}]}, {"compound": "N#Cc1cc(F)cc(OCc2cccc3nc(N)nc(N)c23)c1", "note": "[PF-06738066]", "values": [{"measurement": "Cave,u Brain", "setting": "[4]; FVB/N mice, 30mpk IP", "value": 63, "unit": "nM"}, {"measurement": "Cave,u CSF", "setting": "[4]; FVB/N mice, 30mpk IP", "value": 47, "unit": "nM"}, {"measurement": "Cave,u Plasma", "setting": "[4]; FVB/N mice, 30mpk IP", "value": 173, "unit": "nM"}, {"measurement": "brain penetration", "setting": "[4]; [14]", "value": "moderate brain penetration"}, {"measurement": "free drug levels in brain and CSF lower than in plasma", "setting": "[4]; [14]", "value": "approximately 2.5 fold"}, {"measurement": "Smn exons 7/8 in spinal cord", "setting": "[5]; 2B/+ control mice", "value": "significant decrease"}, {"measurement": "Smn transcripts (exons 5/6, exons 7/8, SmnΔ7) in tissues", "setting": "[5]; 2B/- SMA mice, P4-P16 BID i.p.", "value": "significant increases in Smn transcripts in all tissues"}, {"measurement": "changes in SMN transcripts", "setting": "[6]", "value": "modest changes in SMN transcripts"}, {"measurement": "effect on survival of SMA mice compared to vehicle-treated SMA mice", "setting": "2B/- SMA mice [7]", "value": "statistically significant beneficial effect on survival"}, {"measurement": "free drug levels in brain lower than in plasma", "setting": "[8]; 2B/- SMA pups, P13, 10 mg/kg i.p.", "value": "3–4 fold"}, {"measurement": "concentration at 12 h", "setting": "[8]; FVB/N background, mouse, brain, intraperitoneal, 10 mg/kg", "value": "~7", "unit": "nM"}, {"measurement": "drug exposures in SMA pups compared to healthy littermates", "setting": "[8]; P13, 10 mg/kg i.p.", "value": "somewhat higher in SMA pups"}, {"measurement": "effect on CMV-driven Renilla luciferase activity", "setting": "[2]", "value": "strong effect"}, {"measurement": "concentration at 12 h", "setting": "[9]", "value": "184 ± 76", "unit": "nM"}, {"measurement": "simultaneous pass rate, 55° negative geotaxis and climb test", "setting": "2B/- SMA mice [10]; 2B/- SMA mice at P16, combined sexes", "value": "about 78%"}, {"measurement": "improvement in ability to pass the combined assay over vehicle SMA mice", "setting": "2B/- SMA mice [10]; [15]", "value": "~40", "unit": "%"}, {"measurement": "statistical significance of improvement over vehicle SMA mice in combined test", "setting": "2B/- SMA mice [10]; [15]", "value": "showed improvement over vehicle SMA mice that did not reach statistical significance"}, {"measurement": "Smn protein levels in muscle", "setting": "Smn protein [11]", "value": "small but significant increase in muscle"}, {"measurement": "Smn protein levels in spinal cord", "setting": "Smn protein [11]", "value": "significant decrease in spinal cord"}]}, {"compound": "Nc1nc(N)c2c(OCC3CCN(Cc4ccccc4F)CC3)cccc2n1", "note": "[D156844]", "values": [{"measurement": "SMN2 or SMNΔ7 transcript levels or SMN protein in CNS tissues", "setting": "SMA Δ7 mice", "value": "no statistically significant effect"}, {"measurement": "snRNP assembly", "setting": "SMA Δ7 mice", "value": "nor did it have any statistically significant effect"}, {"measurement": "endogenous mouse Smn mRNA", "setting": "Smn mRNA in NSC-34 cells", "value": "elevated the endogenous mouse Smn mRNA"}, {"measurement": "SMN protein levels", "setting": "[12]", "value": "raised SMN protein levels"}, {"measurement": "numbers of SMN-positive nuclear foci (gems)", "setting": "[12]", "value": "dramatically increased"}, {"measurement": "physicochemical character (lipophilicity, basicity)", "setting": "[13]", "value": "highly lipophilic and dibasic"}, {"measurement": "effect on CMV-driven Renilla luciferase activity", "setting": "[2]", "value": "strong effect"}]}]}
